In patent publication US5276120A, “Process for forming omega-deuxy-azasugars” (The Scripps Research Institute, priority 1992, dated 1994):
Like-named read-outs stand apart in the source and are kept apart here. Each block holds one compound with its values, some of them ahead of it.

Columns and labels:
[1] = target: T1, α-Glucosidase (BY) (Saccharomyces cerevisiae, UniProt P07265); assay: Glycosidase inhibition, α-glucosidase from brewers yeast; type: biochemical
T1 construct: purchased Sigma
Excerpt: (§1) Materials: All of the buffers, enzymes, and substrates were purchased from Sigma and used as received. These included piperazine-N,N'-bis(2-ethanesulfonic acid) (PIPES), sodium acetate (NaOAc), ethylenediaminetetraacetic acid (EDTA), β-D-glucosidase (from sweet almond), p-nitrophenyl β-D-glucoside, α-D-glucosidase, p-nitrophenyl α-D-glucoside, β-N-acetyl-D-glucosaminedase, p-nitrophenyl β-N-acetyl-D-glucosaminide, α-D-mannosidase, and p-nitrophenyl α-D-mannoside.
b) PIPES-NaOAc buffer (0.01M PIPES, 0.2M NaOAc and 0.01 mM EDTA, pH 6.5). This buffer was prepared according to the literature procedure [Dale et al., Biochemistry 1985, 24, 3530].
d) α-D-Glucosidase: 1.5 mg of solid protein (70 units/mg) were dissolved in 1 mL PIPES-NaOAc buffer solution and used for assays without further dilution.
g) Substrate solutions: all substrates were dissolved in the corresponding buffer solution for enzymatic assay.
(§2) For each inhibitor, five inhibitor concentrations, ranging from zero to three times Ki, were generally used to determine the Ki value. […] The amount of enzyme added in each assay was adjusted so that less than 10 percent of the substrate, with its lowest substrate concentration, would be consumed within 45 seconds. Since all of the substrates have p-nitrophenol as leaving group, the assays were monitored at 400 nanometers (nm), where the molecular extinction coefficient, ε, was calibrated to be 3204.5M^-1 cm^-1 at pH 6.5. The following illustrates the detailed procedure.
To a 1 mL disposable cuvette were added […] (μL) of the NaOAc-PIPES buffer solution, 20 μL of the inhibitor solution and 20 μL of the p-nitrophenyl β-D-glucoside solution (100 Mm in PIPES-NaoAc buffer, PH 6.5). The solution was well mixed and 20 μL of the β-D-glucosidase solution were injected into the cuvette to start the reaction. The reaction was monitored at 400 nm on a Beckman DU-70 photospectrometer for 45 seconds and the initial hydrolysis rate was calculated. The same procedure was repeated with five other substrate concentrations. After all the initial rates were accumulated, the corresponding Lineweaver-Burk plot at that inhibitor concentration was constructed.
PIPES-NaOAc buffer was used for all the enzymes except β-N-acetyl-D-glucosaminedase, for which PIPES buffer was used.

[2] = system: β-Glucosidase (SA); assay: Glycosidase inhibition, β-glucosidase from sweet almond; type: biochemical; conditions: kinetic analysis
Excerpt: as §1
b) PIPES-NaOAc buffer (0.01M PIPES, 0.2M NaOAc and 0.01 mM EDTA, pH 6.5). This buffer was prepared according to the literature procedure [Dale et al., Biochemistry 1985, 24, 3530]. […]
For each inhibitor, five inhibitor concentrations, ranging from zero to three times Ki, were generally used to determine the Ki value. […] Since all of the substrates have p-nitrophenol as leaving group, the assays were monitored at 400 nanometers (nm), where the molecular extinction coefficient, ε, was calibrated to be 3204.5M^-1 cm^-1 at pH 6.5. […]
To a 1 mL disposable cuvette were added 950 microliters (μL) of the NaOAc-PIPES buffer solution, 20 μL of the inhibitor solution and 20 μL of the p-nitrophenyl β-D-glucoside solution (100 Mm in PIPES-NaoAc buffer, PH 6.5). […] The reaction was monitored at 400 nm on a Beckman DU-70 photospectrometer for 45 seconds and the initial hydrolysis rate was calculated. […]

[3] = target: T2, α-Glucosidase Type I (calf liver) (Bos taurus, UniProt A0A3Q1M9D9); assay: Glycosidase inhibition, α-glucosidase Type I (calf liver); type: biochemical; conditions: footnote not given
T2 construct: host or cells: calf liver
T2 sequence (A0A3Q1M9D9 1-839): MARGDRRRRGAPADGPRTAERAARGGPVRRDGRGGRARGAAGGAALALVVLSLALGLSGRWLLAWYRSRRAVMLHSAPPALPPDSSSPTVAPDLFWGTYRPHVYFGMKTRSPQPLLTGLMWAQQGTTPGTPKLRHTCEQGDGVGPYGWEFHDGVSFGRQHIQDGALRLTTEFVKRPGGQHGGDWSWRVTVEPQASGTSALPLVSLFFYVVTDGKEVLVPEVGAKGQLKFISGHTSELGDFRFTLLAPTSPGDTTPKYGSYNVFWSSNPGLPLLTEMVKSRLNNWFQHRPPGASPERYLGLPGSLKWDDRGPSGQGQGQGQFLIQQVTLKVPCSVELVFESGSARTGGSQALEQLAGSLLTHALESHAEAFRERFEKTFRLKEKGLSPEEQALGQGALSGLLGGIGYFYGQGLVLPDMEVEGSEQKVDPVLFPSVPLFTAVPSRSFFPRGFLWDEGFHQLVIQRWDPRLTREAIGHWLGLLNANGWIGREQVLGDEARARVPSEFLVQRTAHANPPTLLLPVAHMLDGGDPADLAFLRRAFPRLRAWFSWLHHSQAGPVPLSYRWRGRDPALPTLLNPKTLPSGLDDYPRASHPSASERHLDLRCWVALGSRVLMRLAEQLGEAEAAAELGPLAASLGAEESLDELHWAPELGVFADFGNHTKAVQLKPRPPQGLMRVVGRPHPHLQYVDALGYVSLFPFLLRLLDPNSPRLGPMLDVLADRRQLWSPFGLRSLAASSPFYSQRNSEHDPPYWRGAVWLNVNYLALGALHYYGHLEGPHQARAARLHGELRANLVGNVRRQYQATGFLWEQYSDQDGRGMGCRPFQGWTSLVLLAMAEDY

[4] = system: β-D-Galactosidase (jack bean); assay: Glycosidase inhibition, β-D-galactosidase (jack bean); type: biochemical; conditions: 10 mM inhibitor in the assay
Excerpt: as §2

[5] = target: α-L-Fucosidase; assay: α-L-Fucosidase inhibition, hydrolysis of p-nitrophenyl-α-L-fucoside; type: biochemical; conditions: for Type of fucosidase inhibition: versus fuc-pNP
Description: α-L-Fucosidase activity was measured by incubating the enzyme (0.005 Units) with fuc-pNP ([…]) in 0.4 ml of 50 mM acetate buffer, pH 5.5 for 20 minutes at 25° C. in the absence and presence of the azasugars of the present invention. The reaction was stopped by the addition of 0.8 ml of 2 Mm glycine buffer, pH 10.5. The amount of formed p-nitrophenol was determined by optical density spectroscopy at a wavelength of 400 nm.

[6] = system: AIDS virus gp160 envelope protein precursor; conditions: Walker et al., Proc. Natl. Acad. Sci. 1987, 84, 8120; cited from earlier work
[7] = pH 6.5, p-nitrophenyl α-D-glucoside, Lineweaver-Burk, read-out: Ki (M), α-Glucosidase (BY)
[8] = fuc-pNP substrate, 50 mM acetate buffer, pH 5.5, 25° C., read-out: Ki (mM), α-L-Fucosidase Inhibition (Table 2)

T1 sequence (P07265 whole entry): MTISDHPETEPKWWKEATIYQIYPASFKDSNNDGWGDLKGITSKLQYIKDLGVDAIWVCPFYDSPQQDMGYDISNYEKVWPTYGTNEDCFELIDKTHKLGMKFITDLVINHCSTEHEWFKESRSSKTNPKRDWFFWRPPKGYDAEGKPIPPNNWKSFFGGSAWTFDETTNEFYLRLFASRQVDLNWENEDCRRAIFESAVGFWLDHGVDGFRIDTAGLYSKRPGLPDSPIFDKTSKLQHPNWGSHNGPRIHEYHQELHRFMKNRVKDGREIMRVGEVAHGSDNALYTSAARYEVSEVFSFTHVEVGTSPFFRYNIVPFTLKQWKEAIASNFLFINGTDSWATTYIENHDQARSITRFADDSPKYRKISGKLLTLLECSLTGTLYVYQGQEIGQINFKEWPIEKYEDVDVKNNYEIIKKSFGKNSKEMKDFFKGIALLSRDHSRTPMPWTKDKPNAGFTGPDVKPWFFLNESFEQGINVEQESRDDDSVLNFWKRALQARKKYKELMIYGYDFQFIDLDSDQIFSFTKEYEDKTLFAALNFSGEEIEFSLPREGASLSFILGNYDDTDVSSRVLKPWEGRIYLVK

SMILES: C[C@H]1NC[C@H](O)[C@@H](O)[C@@H]1O [Compound 3c, 1,5,6-Trideoxy-1,5-imino-D-glucitol]
Ki [1]: 0.00156 M

Ki [1, 7]: 0.00178 M
SMILES: C[C@@H]1[C@@H](O)[C@H](O)[C@@H](O)CN1C [Compound 17, N-Methyl-1,5,6-trideoxy-1,5-imino-D-glucitol]

Potency relative to Compound 17, β-glucosidase from sweet almond [2]: less potent inhibitor than Compound 17
Ki [1, 7]: 0.00695 M
SMILES: CC1C(O)C(O)C(O)C[N+]1(C)[O-] [Compound 18, N-Methyl-1,5,6-trideoxy-1,5-imino-D-glucitol oxide]

SMILES: CN1CC(O)C(O)C(O)C1CO (stereo not shown) [Compound 19, N-methyl 1-deoxynojirimycin]
Ki [3]: 0.07 µM
Ki [1]: 0.000369 M

SMILES: OCC1NCC(O)C(O)C1O (stereo not shown) [Compound 23, 1-deoxynojirimycin]
Inhibition of β-D-Galactosidase (jack bean) [4]: No inhibition
Ki [1]: 8.67e-06 M

SMILES: OCC1NCC(O)C(O)C1O [Compound 124, D-1-deoxytalonojirimycin]
Ki [5, 8]: 0.05 ± 0.006 mM

Ki [5, 8]: 0.03 ± 0.01 mM
SMILES: OC[C@H]1NC[C@@H](O)[C@@H](O)[C@@H]1O [D-1-deoxymannojirimycin, 1,5-dideoxy-1,5-imino-D-mannitol]

Ki ([5]; competitive inhibitor versus fuc-pNP, read-out: Ki versus fuc-pNP): 0.3 ± 0.01 mM
Ki [5, 8]: 0.3 ± 0.1 mM
Type of fucosidase inhibition [5]: competitive inhibitor
SMILES: C[C@@H]1OC(O)[C@@H](O)[C@H](O)[C@@H]1O (stereo partly drawn) [L-Fucose]

SMILES: OC1CN2CCC(O)C2C(O)C1O (stereo not shown) [castanospermine, 1,6,7,8-tetrahydroxyoctahydroindolizine]
Effect on processing of AIDS virus gp160 envelope protein precursor [6]: inhibit the processing of the AIDS virus gp160 envelope protein precursor

SMILES: Oc1ccccc1 [phenol]
Ki ([5]; noncompetitive inhibitor, analog of p-nitrophenol, read-out: Kis): 0.18 ± 0.02 mM
Type of fucosidase inhibition [5]: noncompetitive inhibitor
